Like-named read-outs stand apart in the source and are kept apart here.
How the values were obtained:
[1] = test system: Key Grass and Sedge Weeds as well as Grass Crops; experiment: Post-Emergent Test II (Table 6); assay type: in vivo; conditions: post-emergence, 336 h, 14 days after application; for pest or weed control at 70 g/ha: 70 g ai/ha; for pest or weed control at 140 g/ha: 140 g ai/ha
Summary of the method: (§1)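 Plants at first or second true-leaf stage, grown 7-21 days in greenhouse, were sprayed post-emergence at 187 L/ha with compounds in acetone/DMSO/water/crop oil/surfactant mixture at the high rate and ½× to 1/16× dilutions. Injury scored visually after 14 days, 0 (none) to 100% (complete kill), versus untreated plants.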

[2] = test system: Key Broadleaf Weed and Crop Species; experiment: Post-Emergent Test II (Table 5); assay type: in vivo; conditions: post-emergence, 336 h; for pest or weed control at 70 g/ha: application rate 70 (kg ai/ha; footnote: g ai/ha); for pest or weed control at 140 g/ha: application rate 140 (kg ai/ha; footnote: g ai/ha)
Summary of the method: as §1

[3] = CYPSS, read-out: Visual Growth Reduction (%) 14 Days After Application CYPSS
[4] = DIGSA: crabgrass (Digitaria sanguinalis), read-out: Visual Growth Reduction (%) 14 Days After Application DIGSA
[5] = ECHSS, read-out: Visual Growth Reduction (%) 14 Days After Application ECHSS
[6] = ORYSS (crop), read-out: Visual Growth Reduction (%) 14 Days After Application ORYSS
[7] = SETFA: giant foxtail (Setaria faberi), read-out: Visual Growth Reduction (%) 14 Days After Application SETFA
[8] = SORVU: grain sorghum (Sorghum vulgare), read-out: Visual Growth Reduction (%) 14 Days After Application SORVU
[9] = TRZSS (crop), read-out: Visual Growth Reduction (%) 14 Days After Application TRZSS
[10] = ZEAMX: maize, corn (Zea mays), read-out: Visual Growth Reduction (%) 14 Days After Application ZEAMX
[11] = Abutilon theophrasti, ABUTH: velvetleaf (Abutilon theophrasti), read-out: Visual Growth Reduction (%) 14 Days After Application ABUTH
[12] = Amaranthus retroflexus, AMARE: redroot pigweed (Amaranthus retroflexus), read-out: Visual Growth Reduction (%) 14 Days After Application AMARE
[13] = Brassica napus, BRSSS: oilseed rape, canola (Brassica napus), read-out: Visual Growth Reduction (%) 14 Days After Application BRSSS
[14] = Chenopodium album, CHEAL: lambsquarters (Chenopodium album), read-out: Visual Growth Reduction (%) 14 Days After Application CHEAL
[15] = Euphorbia heterophylla, EPHHL: wild poinsettia (Euphorbia heterophylla), read-out: Visual Growth Reduction (%) 14 Days After Application EPHHL
[16] = Helianthus annuus, HELAN: sunflower (Helianthus annuus), read-out: Visual Growth Reduction (%) 14 Days After Application HELAN
[17] = Viola tricolor, VIOTR: wild pansy (Viola tricolor), read-out: Visual Growth Reduction (%) 14 Days After Application VIOTR

For `CCc1c(-c2cc(N)c(Cl)c(C(=O)O)n2)ccc(Cl)c1F` [Compound 86], which pest or weed control at 70 g/ha [1, 3] is on record?
Its pest or weed control at 70 g/ha is 0 to 29%.

And the pest or weed control at 140 g/ha [1, 3]?
Its pest or weed control at 140 g/ha is 0 to 29%.

What about the pest or weed control at 70 g/ha [1, 4] of the same compound?
Its pest or weed control at 70 g/ha is 0 to 29%.

And the pest or weed control at 140 g/ha [1, 4]?
The pest or weed control at 140 g/ha was 0 to 29%.

And the pest or weed control at 70 g/ha [1, 5]?
The pest or weed control at 70 g/ha was 0 to 29%.

And the pest or weed control at 140 g/ha [1, 5]?
The pest or weed control at 140 g/ha was 0 to 29%.

And the pest or weed control at 70 g/ha [1, 6]?
Its pest or weed control at 70 g/ha is 0 to 29%.

What about the pest or weed control at 140 g/ha [1, 6] of the same compound?
Its pest or weed control at 140 g/ha is 0 to 29%.

And the pest or weed control at 70 g/ha [1, 7]?
The pest or weed control at 70 g/ha was 0 to 29%.

What about the pest or weed control at 140 g/ha [1, 7] of the same compound?
Its pest or weed control at 140 g/ha is 0 to 29%.

What about the pest or weed control at 70 g/ha [1, 8] of the same compound?
The pest or weed control at 70 g/ha was 0 to 29%.

What about the pest or weed control at 140 g/ha [1, 8] of the same compound?
The pest or weed control at 140 g/ha was 0 to 29%.

What about the pest or weed control at 70 g/ha [1, 9] of the same compound?
The pest or weed control at 70 g/ha was 0 to 29%.

What about the pest or weed control at 140 g/ha [1, 9] of the same compound?
Its pest or weed control at 140 g/ha is 0 to 29%.

What about the pest or weed control at 70 g/ha [1, 10] of the same compound?
The pest or weed control at 70 g/ha was 0 to 29%.

And the pest or weed control at 140 g/ha [1, 10]?
The pest or weed control at 140 g/ha was 0 to 29%.

What about the melting point of the same compound?
Its melting point is 144 to 146 °C.

And the pest or weed control at 70 g/ha [2, 11]?
Its pest or weed control at 70 g/ha is 45 to 59%.

What about the pest or weed control at 140 g/ha [2, 11] of the same compound?
The pest or weed control at 140 g/ha was 0 to 29%.

And the pest or weed control at 70 g/ha [2, 12]?
The pest or weed control at 70 g/ha was 85 to 94%.

What about the pest or weed control at 140 g/ha [2, 12] of the same compound?
Its pest or weed control at 140 g/ha is 85 to 94%.

What about the pest or weed control at 70 g/ha [2, 13] of the same compound?
The pest or weed control at 70 g/ha was 75 to 84%.

And the pest or weed control at 140 g/ha [2, 13]?
The pest or weed control at 140 g/ha was 85 to 94%.

And the pest or weed control at 70 g/ha [2, 14]?
The pest or weed control at 70 g/ha was 85 to 94%.

What about the pest or weed control at 140 g/ha [2, 14] of the same compound?
Its pest or weed control at 140 g/ha is 85 to 94%.

What about the pest or weed control at 70 g/ha [2, 15] of the same compound?
Its pest or weed control at 70 g/ha is 0 to 29%.

And the pest or weed control at 140 g/ha [2, 15]?
Its pest or weed control at 140 g/ha is 0 to 29%.

And the pest or weed control at 70 g/ha [2, 16]?
The pest or weed control at 70 g/ha was 75 to 84%.

What about the pest or weed control at 140 g/ha [2, 16] of the same compound?
Its pest or weed control at 140 g/ha is 75 to 84%.

What about the pest or weed control at 70 g/ha [2, 17] of the same compound?
Its pest or weed control at 70 g/ha is 0 to 29%.

What about the pest or weed control at 140 g/ha [2, 17] of the same compound?
The pest or weed control at 140 g/ha was 0 to 29%.

With `COc1ccc(-c2nc(C(=O)O)c(Cl)c(N)c2F)cn1` [Compound 30] as the compound, how does the pest or weed control at 70 g/ha [1, 3] read?
The pest or weed control at 70 g/ha was 0 to 29%.

And the pest or weed control at 140 g/ha [1, 3]?
Its pest or weed control at 140 g/ha is 0 to 29%.

What about the pest or weed control at 70 g/ha [1, 4] of the same compound?
Its pest or weed control at 70 g/ha is 60 to 74%.

And the pest or weed control at 140 g/ha [1, 4]?
Its pest or weed control at 140 g/ha is 60 to 74%.

And the pest or weed control at 70 g/ha [1, 5]?
The pest or weed control at 70 g/ha was 95 to 100%.

What about the pest or weed control at 140 g/ha [1, 5] of the same compound?
Its pest or weed control at 140 g/ha is 95 to 100%.

And the pest or weed control at 70 g/ha [1, 6]?
Its pest or weed control at 70 g/ha is 30 to 44%.

And the pest or weed control at 140 g/ha [1, 6]?
The pest or weed control at 140 g/ha was 45 to 59%.

And the pest or weed control at 70 g/ha [1, 7]?
The pest or weed control at 70 g/ha was 75 to 84%.

And the pest or weed control at 140 g/ha [1, 7]?
Its pest or weed control at 140 g/ha is 85 to 94%.

What about the pest or weed control at 70 g/ha [1, 8] of the same compound?
Its pest or weed control at 70 g/ha is 45 to 59%.

And the pest or weed control at 140 g/ha [1, 8]?
The pest or weed control at 140 g/ha was 85 to 94%.

And the pest or weed control at 70 g/ha [1, 9]?
The pest or weed control at 70 g/ha was 0 to 29%.

What about the pest or weed control at 140 g/ha [1, 9] of the same compound?
The pest or weed control at 140 g/ha was 0 to 29%.

And the pest or weed control at 70 g/ha [1, 10]?
Its pest or weed control at 70 g/ha is 95 to 100%.

What about the pest or weed control at 140 g/ha [1, 10] of the same compound?
Its pest or weed control at 140 g/ha is 95 to 100%.

What about the melting point of the same compound?
Its melting point is 166 to 167 °C.

What about the pest or weed control at 70 g/ha [2, 11] of the same compound?
The pest or weed control at 70 g/ha was 95 to 100%.

What about the pest or weed control at 140 g/ha [2, 11] of the same compound?
Its pest or weed control at 140 g/ha is 95 to 100%.

What about the pest or weed control at 70 g/ha [2, 12] of the same compound?
The pest or weed control at 70 g/ha was 95 to 100%.

What about the pest or weed control at 140 g/ha [2, 12] of the same compound?
The pest or weed control at 140 g/ha was 95 to 100%.

What about the pest or weed control at 70 g/ha [2, 13] of the same compound?
The pest or weed control at 70 g/ha was 95 to 100%.

What about the pest or weed control at 140 g/ha [2, 13] of the same compound?
Its pest or weed control at 140 g/ha is 95 to 100%.

What about the pest or weed control at 70 g/ha [2, 14] of the same compound?
The pest or weed control at 70 g/ha was 95 to 100%.

What about the pest or weed control at 140 g/ha [2, 14] of the same compound?
Its pest or weed control at 140 g/ha is 95 to 100%.

What about the pest or weed control at 70 g/ha [2, 15] of the same compound?
Its pest or weed control at 70 g/ha is 95 to 100%.

What about the pest or weed control at 140 g/ha [2, 15] of the same compound?
The pest or weed control at 140 g/ha was 95 to 100%.

What about the pest or weed control at 70 g/ha [2, 16] of the same compound?
Its pest or weed control at 70 g/ha is 95 to 100%.

And the pest or weed control at 140 g/ha [2, 16]?
Its pest or weed control at 140 g/ha is 95 to 100%.

And the pest or weed control at 70 g/ha [2, 17]?
The pest or weed control at 70 g/ha was 0 to 29%.

What about the pest or weed control at 140 g/ha [2, 17] of the same compound?
Its pest or weed control at 140 g/ha is 0 to 29%.

What does the source list for `COC(=O)c1nc(-c2ccc(Cl)c(F)c2C)c(F)c(N)c1Cl` [Compound 68]?
pest or weed control at 70 g/ha [1, 3]: 0 to 29%; pest or weed control at 140 g/ha [1, 3]: 0 to 29%; pest or weed control at 70 g/ha [1, 4]: 0 to 29%; pest or weed control at 140 g/ha [1, 4]: 0 to 29%; pest or weed control at 70 g/ha [1, 5]: 0 to 29%; pest or weed control at 140 g/ha [1, 5]: 0 to 29%; pest or weed control at 70 g/ha [1, 6]: 0 to 29%; pest or weed control at 140 g/ha [1, 6]: 0 to 29%; pest or weed control at 70 g/ha [1, 7]: 0 to 29%; pest or weed control at 140 g/ha [1, 7]: 0 to 29%; pest or weed control at 70 g/ha [1, 8]: 0 to 29%; pest or weed control at 140 g/ha [1, 8]: 0 to 29%; pest or weed control at 70 g/ha [1, 9]: 0 to 29%; pest or weed control at 140 g/ha [1, 9]: 0 to 29%; pest or weed control at 70 g/ha [1, 10]: 0 to 29%; pest or weed control at 140 g/ha [1, 10]: 0 to 29%; melting point: 154 to 156 °C; pest or weed control at 70 g/ha [2, 11]: 95 to 100%; pest or weed control at 140 g/ha [2, 11]: 95 to 100%; pest or weed control at 70 g/ha [2, 12]: 95 to 100%; pest or weed control at 140 g/ha [2, 12]: 95 to 100%; pest or weed control at 70 g/ha [2, 13]: 85 to 94%; pest or weed control at 140 g/ha [2, 13]: 95 to 100%; pest or weed control at 70 g/ha [2, 14]: 95 to 100%; pest or weed control at 140 g/ha [2, 14]: 95 to 100%; pest or weed control at 70 g/ha [2, 15]: 0 to 29%; pest or weed control at 140 g/ha [2, 15]: 0 to 29%; pest or weed control at 70 g/ha [2, 16]: 95 to 100%; pest or weed control at 140 g/ha [2, 16]: 95 to 100%; pest or weed control at 70 g/ha [2, 17]: 30 to 44%; pest or weed control at 140 g/ha [2, 17]: 30 to 44%
